pKi: −log10 of the molar value.
biological target: T1, DLK (Homo sapiens, UniProt Q12852); assay: DLK TR-FRET assay; format: biochemical; details: 5 nM GST-tagged DLK (catalytic domain amino acid 1-520), 40 nM HIS-tagged MKK4 K131M substrate, 30 μM ATP, 60 minutes
T1 construct: N-terminally GST-tagged DLK (catalytic domain amino acid 1-520) (Carna Bioscience); GST (N); purchased Carna Bioscience
T1 sequence (Q12852 1-520): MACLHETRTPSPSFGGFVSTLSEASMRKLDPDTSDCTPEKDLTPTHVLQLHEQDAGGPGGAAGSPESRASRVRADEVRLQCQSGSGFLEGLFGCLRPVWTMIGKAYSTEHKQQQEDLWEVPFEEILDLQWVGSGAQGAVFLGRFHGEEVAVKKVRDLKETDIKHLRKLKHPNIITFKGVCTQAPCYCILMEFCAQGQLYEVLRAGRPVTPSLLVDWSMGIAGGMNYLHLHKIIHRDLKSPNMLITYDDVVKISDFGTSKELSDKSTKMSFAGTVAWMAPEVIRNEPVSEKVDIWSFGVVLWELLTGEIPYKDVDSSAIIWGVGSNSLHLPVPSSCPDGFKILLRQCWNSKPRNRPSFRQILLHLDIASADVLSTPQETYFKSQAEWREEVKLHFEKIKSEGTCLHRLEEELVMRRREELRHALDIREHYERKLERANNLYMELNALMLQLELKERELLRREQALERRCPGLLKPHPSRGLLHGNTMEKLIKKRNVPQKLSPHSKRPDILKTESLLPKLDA
Description: DLK TR-FRET assay: DLK kinase reactions (20 μL) containing 5 nM N-terminally GST-tagged DLK (catalytic domain amino acid 1-520) (Carna Bioscience), 40 nM N-terminally HIS-tagged MKK4 K131M substrate, and 30 μM ATP in kinase reaction buffer (50 mM HEPES, pH 7.5, 0.01% Triton X-100, 0.01% Bovine γ-Globulins, 2 mM DTT, 10 mM MgCl2 and 1 mM EGTA), and testing compound 1:3 serial diluted starting at 20 uM were incubated at ambient temperature for 60 minutes in 384 well OptiPlate (Perkin Elmer). To quench kinase reactions and detect phosphorylated MKK4, 15 μL of TR-FRET antibody mixture containing 2 nM anti-phosphorylated MKK4 labeled with Europium cryptate (Cisbio) and 23 nM anti-HIS labeled with D2 (Cisbio) in detection buffer (25 mM Tris pH 7.5, 100 mM NaCl, 100 mM EDTA, 0.01% Tween-20, and 200 mM KF) was added to the reaction mixture. The detection mixture was incubated for 3 hours at ambient temperature and the TR-FRET was detected with an EnVision multilabel plate reader (Perkin-Elmer) using the LANCE/DELFIA Dual Enh label from Perkin-Elmer (excitation filter: UV2 (TRF) 320 and emission filters: APC 665 and Europium 615).

pKi | Structure (SMILES)
8.46 | CC(=O)N1CCC(c2cc(Nc3cc(C(F)F)ccn3)nc(C3CC3)c2)CC1 [Example 57, 1-[6′-Cyclopropyl-2′-(4-difluoromethyl-pyridin-2-ylamino)-3,4,5,6-tetrahydro-2H-[4,4′]bipyridinyl-1-yl]-ethanone]
8.62 | FC(F)c1ccnc(Nc2cc(C3CCN(C4COC4)CC3)cc(N3CCC3)n2)c1 [Example 51, (6-Azetidin-1-yl-1′-oxetan-3-yl-1′,2′,3′,4′,5′,6′-hexahydro-[4,4′]bipyridinyl-2-yl)-(4-difluoromethyl-pyridin-2-yl)-amine]
9.03 | FC1(F)CCN(c2cc(C3CN(C4COC4)C3)cc(Nc3cc(C(F)(F)F)ccn3)n2)C1 [Example 117, [6-(3,3-Difluoro-pyrrolidin-1-yl)-4-(1-oxetan-3-yl-azetidin-3-yl)-pyridin-2-yl]-(4-trifluoromethyl-pyridin-2-yl)-amine]
8.39 | N#Cc1ccnc(Nc2cc(C3CCN(C4COC4)CC3)cc(N3CC4(CCC4(F)F)C3)n2)c1 [Example 94, 2-[6-(5,5-Difluoro-2-aza-spiro[3.3]hept-2-yl)-1′-oxetan-3-yl-1′,2′,3′,4′,5′,6′-hexahydro-[4,4′]bipyridinyl-2-ylamino]-isonicotinonitrile]
7.96 | N#Cc1ccnc(Nc2cc(C3CCOCC3)cc(N3CC4CC(F)(F)C4C3)n2)c1 (stereo not shown) [Example 100, 2-[6-(6,6-Difluoro-3-aza-bicyclo[3.2.0]hept-3-yl)-4-(tetrahydro-pyran-4-yl)-pyridin-2-ylamino]-isonicotinonitrile]
7.80 | N#Cc1ccnc(Nc2cc(C3CCOCC3)cc(N3CC4(CCC4(F)F)C3)n2)c1 [Example 103, 2-[6-(5,5-Difluoro-2-aza-spiro[3.3]hept-2-yl)-4-(tetrahydro-pyran-4-yl)-pyridin-2-ylamino]-isonicotinonitrile]
7.94 | N#Cc1ccnc(Nc2cc(C3CCOCC3)cc(N3CC4CC3C4)n2)c1 [Example 81, 2-[6-(2-Aza-bicyclo[2.1.1]hex-2-yl)-4-(tetrahydro-pyran-4-yl)-pyridin-2-ylamino]-isonicotinonitrile]
7.60 | Cc1ccnc(Nc2cc(C3CCN(S(C)(=O)=O)CC3)cc(N3CCC[C@H]3C)n2)c1 [Example 136, [1′-Methanesulfonyl-6-((R)-2-methyl-pyrrolidin-1-yl)-1′,2′,3′,4′,5′,6′-hexahydro-[4,4′]bipyridinyl-2-yl]-(4-methyl-pyridin-2-yl)-amine]
8.66 | N#Cc1ccnc(Nc2cc(C3(C#N)CCNCC3)cc(N3CCC3)n2)c1 [Example 38, 6′-Azetidin-1-yl-2′-(4-cyano-pyridin-2-ylamino)-2,3,5,6-tetrahydro-1H-[4,4′]bipyridinyl-4-carbonitrile]
9.70 | C[C@@H]1CCCN1c1cc(C2(C#N)CCOCC2)cc(Nc2cc(C#N)ccn2)n1 [Example 74, 2-[4-(4-Cyano-tetrahydro-pyran-4-yl)-6-((R)-2-methyl-pyrrolidin-1-yl)-pyridin-2-ylamino]-isonicotinonitrile]
8.34 | N#Cc1ccnc(Nc2cc(C3CCOCC3)cc(N3CCC4CC43)n2)c1 (stereo not shown) [Example 83, 2-[6-(2-Aza-bicyclo[3.1.0]hex-2-yl)-4-(tetrahydro-pyran-4-yl)-pyridin-2-ylamino]-isonicotinonitrile]
7.68 | COC1CN(c2cc(C3CCN(C4COC4)CC3)cc(Nc3cc(C(F)F)ccn3)n2)C1 [Example 48, (4-Difluoromethyl-pyridin-2-yl)-[6-(3-methoxy-azetidin-1-yl)-1′-oxetan-3-yl-1′,2′,3′,4′,5′,6′-hexahydro-[4,4′]bipyridinyl-2-yl]-amine]
8.82 | CC(=O)N1CCC(c2cc(Nc3cc(C#N)ccn3)nc(C3CC3)c2)CC1 [Example 59, 2-(1′-Acetyl-6-cyclopropyl-1′,2′,3′,4′,5′,6′-hexahydro-[4,4′]bipyridinyl-2-ylamino)-isonicotinonitrile]
7.52 | CC(=O)N1CCC(c2cc(Nc3cc(C)ccn3)nc(-c3cnn(C)c3)c2)CC1 [Example 134, 1-[2′-(1-Methyl-1H-pyrazol-4-yl)-6′-(4-methyl-pyridin-2-ylamino)-3,4,5,6-tetrahydro-2H-[4,4′]bipyridinyl-1-yl]-ethanone]
8.19 | O=C1CCCN1c1cc(C2CCN(C3COC3)CC2)cc(Nc2cc(C(F)F)ccn2)n1 [Example 42, 1-[6-(4-Difluoromethyl-pyridin-2-ylamino)-1′-oxetan-3-yl-1′,2′,3′,4′,5′,6′-hexahydro-[4,4′]bipyridinyl-2-yl]-pyrrolidin-2-one]
7.21 | Cc1ccnc(Nc2cc(C3CCNCC3)cc(N(C)CCO)n2)c1 [Example 144, 2-{Methyl-[6-(4-methyl-pyridin-2-ylamino)-1′,2′,3′,4′,5′,6′-hexahydro-[4,4′]bipyridinyl-2-yl]-amino}-ethanol]
7.46 | N#Cc1ccnc(Nc2cc(C3CCN(C4COC4)CC3)cc(N3CCCC3=O)n2)c1 [Example 79, 2-[1′-Oxetan-3-yl-6-(2-oxo-pyrrolidin-1-yl)-1′,2′,3′,4′,5′,6′-hexahydro-[4,4′]bipyridinyl-2-ylamino]-isonicotinonitrile]
9.77 | C[C@@H]1CCCN1c1cc(C2CCN(CCF)CC2)cc(Nc2cc(C(F)(F)F)ccn2)n1 [Example 137, [1′-(2-Fluoro-ethyl)-6-((R)-2-methyl-pyrrolidin-1-yl)-1′,2′,3′,4′,5′,6′-hexahydro-[4,4′]bipyridinyl-2-yl]-(4-trifluoromethyl-pyridin-2-yl)-amine]
8.18 | CS(=O)(=O)N1CC(c2cc(Nc3cc(C(F)(F)F)ccn3)nc(N3CCC(F)(F)C3)c2)C1 [Example 126, [6-(3,3-Difluoro-pyrrolidin-1-yl)-4-(1-methanesulfonyl-azetidin-3-yl)-pyridin-2-yl]-(4-trifluoromethyl-pyridin-2-yl)-amine]
7.03 | CC(=O)N1CCC(c2cc(C)nc(Nc3cc(C#N)ccn3)c2)CC1 [Example 108, 2-(1′-Acetyl-6-methyl-1′,2′,3′,4′,5′,6′-hexahydro[4,4′]bipyridinyl-2-ylamino)-isonicotinonitrile]
8.07 | N#Cc1ccnc(Nc2cc(C3(C#N)CCOCC3)cc(C3CC3)n2)c1 [Example 63, 2-[4-(4-Cyano-tetrahydro-pyran-4-yl)-6-cyclopropyl-pyridin-2-ylamino]-isonicotinonitrile]
9.70 | C[C@@H]1CCCN1c1cc(C2CCOCC2)cc(Nc2cc(C#N)ccn2)n1 [Example 123, 2-[6-((R)-2-Methyl-pyrrolidin-1-yl)-4-(tetrahydro-pyran-4-yl)-pyridin-2-ylamino]-isonicotinonitrile]
8.33 | N#Cc1ccnc(Nc2cc(C3(C#N)CCOCC3)cc(N3CCC(F)(F)C3)n2)c1 [Example 61, 2-[4-(4-Cyano-tetrahydro-pyran-4-yl)-6-(3,3-difluoro-pyrrolidin-1-yl)-pyridin-2-ylamino]-isonicotinonitrile]
7.05 | Cc1cc(C2CCNCC2)cc(Nc2cc(C#N)ccn2)n1 [Example 111, 2-(6-Methyl-1′,2′,3′,4′,5′,6′-hexahydro-[4,4′]bipyridinyl-2-ylamino)-isonicotinonitrile]
8.70 | N#CC1(c2cc(Nc3cc(C(F)F)ccn3)nc(N3CC4CC4C3)c2)CCOCC1 (stereo not shown) [Example 52, 4-[2-(3-Aza-bicyclo[3.1.0]hex-3-yl)-6-(4-difluoromethyl-pyridin-2-ylamino)-pyridin-4-yl]-tetrahydro-pyran-4-carbonitrile]
7.32 | CC(C)(C)OC(=O)N1CC(c2cc(Cl)nc(Nc3cc(C(F)F)ccn3)c2)C1 [Example 45, 3-[2-Chloro-6-(4-difluoromethyl-pyridin-2-ylamino)-pyridin-4-yl]-azetidine-1-carboxylic acid tert-butyl ester]
9.18 | CC1CCCN1c1cc(C2CCN(C(=O)c3cn(C)cn3)C2)cc(Nc2cc(C(F)(F)F)ccn2)n1 (stereo not shown) [Example 133, (1-Methyl-1H-imidazol-4-yl)-{3-[2-(2-methyl-pyrrolidin-1-yl)-6-(4-trifluoromethyl-pyridin-2-ylamino)-pyridin-4-yl]-pyrrolidin-1-yl}-methanone]

Structure (SMILES) | pKi
CCCCOc1cc(C2CCN(C3COC3)CC2)cc(Nc2cc(C(F)F)ccn2)n1 [Example 43, (6-Butoxy-1′-oxetan-3-yl-1′,2′,3′,4′,5′,6′-hexahydro-[4,4′]bipyridinyl-2-yl)-(4-difluoro-methyl-pyridin-2-yl)-amine] | 8.42
